Structures can show the parent of a compound that is named as a salt.
What was measured:
human DPP-IV = target: T1, human DPP-IV (Homo sapiens, UniProt P27487); assay: DPP-IV activity assay (fluorogenic / colorimetric); type: biochemical; details: natural human DPP-IV from plasma pool or recombinant human DPP-IV; 37° C., pH 7.8
T1 construct: made in house; host or cells: Pichia pastoris (secreted, purified from the culture medium)
Description: Activity of DPP-IV inhibitors are tested with natural human DPP-IV derived from a human plasma pool or with recombinant human DPP-IV. Human citrate plasma from different donors is pooled, filtered through a 0.2 micron membrane under sterile conditions and aliquots of 1 mL are shock frozen and stored at −120° C. until used. In the colorimetric DPP-IV assay 5 to 10 μL human plasma and in the fluorometric assay 1.0 μL of human plasma in a total assay volume of 100 μL is used as an enzyme source. The cDNA of the human DPP-IV sequence of amino acid 31- to 766, restricted for the N-terminus and the transmembrane domain, is cloned into pichia pastoris. […]
In the calorimetric assay H-Ala-Pro-pNA.HCl (Bachem L-1115) is used as a substrate. […] Fluorescence is detected in a Perkin Elmer Luminescence Spectrometer LS 50B at an excitation wavelength of 400 nm and an emission wavelength of 505 nm continuously every 15 seconds for 10 to 30 minutes. Initial rate constants are calculated by best fit linear regression. The absorption of pNA liberated from the calorimetric substrate is detected in a Packard SpectraCount at […] continuously every 2 minutes for 30 to 120 minutes. Initial rate constants are calculated by best fit linear regression. […]
IC50 determinations of test compounds are calculated by non-linear best fit regression of the DPP-IV inhibition of at least 5 different compound concentrations. […]

[1] = Hygroscopicity observation (water uptake and release of the crystal form); type: physicochemical; details: solid crystal form; XRPD and IR vary with humidity of the sample
Text: It has been observed that the polymorph B is hygroscopic and that the X-ray powder diffraction pattern and the IR-spectrum of polymorph B can vary, depending on the humidity of the analyzed sample. Water uptake and release, respectively, result in systematic shifts of some peak positions in the X-ray powder diffraction pattern. The crystal form B is characterized by a set of peaks, as described above, that are not susceptible to peak shifts in a range larger than 0.2 degrees in 2-theta. Samples of polymorph B, which have been dried, e.g. by elevated temperature or in a dry atmosphere, show the same X-ray powder diffraction pattern. In the IR spectrum of polymorph B, variations of humidity of the sample are mainly observed in following regions: 3700-3300, 1250-1150, 1045-1000 970-955, 900-850 cm^−1. However, changes of humidity can also have an influence on the position of the peaks outside these ranges.

T1 sequence (P27487 31-766): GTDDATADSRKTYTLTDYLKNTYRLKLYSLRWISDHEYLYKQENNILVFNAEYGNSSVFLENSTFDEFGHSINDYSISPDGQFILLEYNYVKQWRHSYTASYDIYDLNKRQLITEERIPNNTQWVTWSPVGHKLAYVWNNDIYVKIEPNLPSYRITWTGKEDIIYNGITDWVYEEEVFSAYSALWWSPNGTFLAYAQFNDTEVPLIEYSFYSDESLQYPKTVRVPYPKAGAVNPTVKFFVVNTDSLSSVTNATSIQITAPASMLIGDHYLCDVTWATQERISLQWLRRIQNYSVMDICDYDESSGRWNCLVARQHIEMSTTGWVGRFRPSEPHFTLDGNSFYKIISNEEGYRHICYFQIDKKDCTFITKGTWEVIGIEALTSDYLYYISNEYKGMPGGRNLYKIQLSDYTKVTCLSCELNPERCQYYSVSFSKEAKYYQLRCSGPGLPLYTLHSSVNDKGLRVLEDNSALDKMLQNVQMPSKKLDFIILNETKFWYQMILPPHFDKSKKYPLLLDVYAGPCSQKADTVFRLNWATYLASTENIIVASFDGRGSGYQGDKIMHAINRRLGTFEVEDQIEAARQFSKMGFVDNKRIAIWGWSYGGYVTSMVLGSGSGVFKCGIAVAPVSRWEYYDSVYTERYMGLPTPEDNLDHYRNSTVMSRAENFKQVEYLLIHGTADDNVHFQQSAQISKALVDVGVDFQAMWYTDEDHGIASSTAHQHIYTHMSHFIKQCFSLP

Structure (SMILES) | IC50 (human DPP-IV) [nM] | Ki (human DPP-IV) [nM] | hygroscopicity [1]
Cc1oc(-c2ccccc2)nc1CCNCC(=O)N1CCC[C@H]1C#N [(S)-1-{[2-(5-Methyl-2-phenyl-oxazol-4-yl)-ethylamino]-acetyl}-pyrrolidine-2-carbonitrile mesylate] | 75 | 80 | –
CS(=O)(=O)O.Cc1oc(-c2ccccc2)nc1CCNCC(=O)N1CCC[C@H]1C#N [polymorph B, (S)-1-{[2-(5-Methyl-2-phenyl-oxazol-4-yl)-ethylamino]-acetyl}-pyrrolidine-2-carbonitrile mesylate] | – | – | hygroscopic

From US7772264B2, “Salt and polymorphs of a DPPIV inhibitor” (Hoffmann-La Roche Inc., priority 2005, dated 2010)
